Series [1] has as its target T1, Human recombinant thrombin (Homo sapiens, UniProt P00734).
T1 construct: Human recombinant thrombin was prepared in house; made in house
As to the kind of experiment: Thrombin (FIIa) chromogenic assay. The series is classed as biochemical. As to conditions: read-out: FIIa % inhibition at 99 μM. As to the method: (§1) Enzymatic assay. […] Selected compounds were also screened against other serine proteases to evaluate their selectivity profiles.
(§2) Once the compounds were synthesized and characterized, enzymatic assays were performed to evaluate the inhibitory activity of the resulting compounds against FXIa and other serine proteases. […] IC50 values for the compounds were determined using equation: Q= V/(1+([I]/IC50)^n) Q denotes the assay readout, V denotes the uninhibited velocity of the enzyme, [I] denotes the inhibitor concentration, n denotes the slope and IC50 is the inhibitor concentration at V/2.
(§3) [S] denotes the substrate concentration.
Thrombin. Human recombinant thrombin was prepared in house.

For series [2], the system named is FXa, thrombin, trypsin, plasma kallikrein (PKK), FIXa, tissue plasminogen activator (tPA) and plasmin. Nature of the series: Serine protease selectivity panel (statements on the whole panel). The series is classed as biochemical, human. As to conditions: relative to FXIa. As to the method: Enzymatic assay. […] Selected compounds were also screened against other serine proteases to evaluate their selectivity profiles. All protease activities were determined by chromogenic assays monitoring the release of para-nitroanilide at 405 nm.
It is important to achieve potent FXIa inhibitors with high selectivity vs. other serine proteases in order to minimize risk for adverse effects, particularly with regard to bleeding, which limits the utility of current antithrombotic drugs, e.g. dabigatran and rivaroxaban. Selectivity data for FXa, thrombin, trypsin, plasma kallikrein (PKK), FIXa, tissue plasminogen activator (tPA) and plasmin were therefore generated and are summarized in Fig. 6. […].
Once the compounds were synthesized and characterized, enzymatic assays were performed to evaluate the inhibitory activity of the resulting compounds against FXIa and other serine proteases. All protease activities were determined by chromogenic assays monitoring the release of para-nitroanilide at 405 nm. IC50 values for the compounds were determined using equation: Q= V/(1+([I]/IC50)^n) Q denotes the assay readout, V denotes the uninhibited velocity of the enzyme, [I] denotes the inhibitor concentration, n denotes the slope and IC50 is the inhibitor concentration at V/2.

Another series has as its system rat hepatocytes. Nature of the series: Rat hepatocyte metabolic stability assay. The series is classed as in vitro ADME. As to the method:
Rat hepatocyte metabolic stability was determined in accordance with the method described by Jacobson et al.. Cryo preserved hepatocytes at a concentration of 10^6 viable cells/mL were used. After thawing, hepatocytes were incubated for 10 min to warm to 37°C and test compounds, dissolved in acetonitrile, were added to give a final concentration of 1 μM. At 0.5, 5, 15, 30, 45, 60, 80, 100 and 120 min, the incubation system was mixed and 20 μL aliquots were transferred at each time point to wells in a separate plate filled with 80 μL acetonitrile to stop the reaction. The quenching plate was then vortexed followed by centrifugation, and supernatants were analyzed by LC/MS/MS. Peak areas were determined from extracted ion chromatograms, and the in vitro intrinsic clearance (in vitro CLint, in μL/min/10^6 cells) of parent compound was calculated from the slope in the regression analysis of the natural logarithm of parent concentration vs. time curve.

For another series, the target named is T2, Human plasmin (Homo sapiens, UniProt P00747).
T2 construct: Human plasmin was from Enzyme Research Laboratories, Swansea, UK; purchased Enzyme Research Laboratories, Swansea, UK
T2 sequence (P00747 581-810 limits assumed): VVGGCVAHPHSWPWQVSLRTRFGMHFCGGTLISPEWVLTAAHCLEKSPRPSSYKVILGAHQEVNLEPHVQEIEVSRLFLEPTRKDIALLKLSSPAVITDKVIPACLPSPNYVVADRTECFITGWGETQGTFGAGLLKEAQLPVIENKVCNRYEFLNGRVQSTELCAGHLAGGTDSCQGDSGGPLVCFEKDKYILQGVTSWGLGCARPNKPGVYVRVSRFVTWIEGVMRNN
T2 sequence (P00747 97-580 partner limits assumed): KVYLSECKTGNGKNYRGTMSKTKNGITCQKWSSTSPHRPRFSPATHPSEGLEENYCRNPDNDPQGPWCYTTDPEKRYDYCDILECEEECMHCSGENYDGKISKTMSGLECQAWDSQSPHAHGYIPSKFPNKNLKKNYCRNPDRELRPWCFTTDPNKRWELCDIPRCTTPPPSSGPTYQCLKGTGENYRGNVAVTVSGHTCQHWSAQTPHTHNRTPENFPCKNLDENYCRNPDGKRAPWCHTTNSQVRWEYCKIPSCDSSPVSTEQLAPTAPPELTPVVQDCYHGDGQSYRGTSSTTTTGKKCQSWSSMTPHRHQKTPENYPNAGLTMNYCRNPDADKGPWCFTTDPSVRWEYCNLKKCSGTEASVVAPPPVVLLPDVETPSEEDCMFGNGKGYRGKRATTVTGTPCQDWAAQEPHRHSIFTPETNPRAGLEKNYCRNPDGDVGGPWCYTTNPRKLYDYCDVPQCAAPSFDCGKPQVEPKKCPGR
As to the kind of experiment: Plasmin chromogenic assay. The series is classed as biochemical. As to conditions: read-out: Plasmin % inhibition at 99 μM. As to the method: as §1, §2, §3
Plasmin. Human plasmin was from Enzyme Research Laboratories, Swansea, UK.

The target in a further series is T3, FXIa CD (Homo sapiens, UniProt P03951, C500S/K455A/S452A/T493A).
T3 construct: purification of the catalytic domain (residues 370–607) was carried out as described by Jin et al; made in house
T3 sequence (P03951 388-625 S452A/K455A/T493A/C500S): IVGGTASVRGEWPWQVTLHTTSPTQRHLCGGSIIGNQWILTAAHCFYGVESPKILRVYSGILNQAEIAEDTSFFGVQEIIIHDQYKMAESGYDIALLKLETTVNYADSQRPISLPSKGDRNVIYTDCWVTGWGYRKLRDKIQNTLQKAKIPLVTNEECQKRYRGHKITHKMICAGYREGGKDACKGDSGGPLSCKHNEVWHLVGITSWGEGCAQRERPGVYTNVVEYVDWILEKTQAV
As to the kind of experiment: FXIa surface plasmon resonance (Biacore) inhibition in solution assay. It counts as binding. The text has this:
SPR. […] The SPR data were then used to rank and select compounds for X-ray crystallography experiments. The SPR method was based on an inhibition in solution assay in which compound 4, immobilized on the biosensor surface, served as a probe for the FXIa catalytic site. […] Fig. 4 illustrates the design of compound 4 based on the crystal structure of FXIa in complex with compound 1. Since any ligand that binds to the S1 pocket competes with compound 4 for binding to FXIa CD, it is possible to derive the K D for that ligand [60]. The initial binding rate of the protein to compound 4, K on, was used to determine the percentage of free protein in solution which changed by varying the concentration of the competing ligand. The free protein concentration was plotted against the logarithm of the ligand concentration and a sigmoidal dose–response curve-fit model was applied to determine the K D-value.
The tethered free amine ligand 4 was covalently linked to the dextran layer on the CM5 sensor chip (GE Healthcare/Biacore) using the Amine Coupling Kit (Healthcare/Biacore) and performed according to the manufacturer’s recommendations. Carboxyl groups on the dextran layer were activated by injecting a 1:1 mixture of 0.5 M N-ethyl-N’ (3-dimethylaminopropyl)-carbodiimide and 0.5 M N-hydroxysuccinimide at 10 μL/min for 7 min. The activated carboxyl groups on the control channels were blocked by injecting a 1 M ethanolamine solution for 7 min at 10 μL/min. […] The remaining activated groups were blocked with 1 M ethanolamine. Compounds were tested in a concentration response curve. The compounds were serially diluted 1:3 in DMSO to form a 10-point concentration response curve with 5 mM for the highest concentration. The FXIa CD was added to the plate at a final concentration of 50 nM and the mixture was incubated for 15 min at RT. The plate was then sealed and placed in the Biacore 3000 instrument. Samples were injected at 20 μL/min for 2 min. […] The value used to calculate percent inhibition of binding was the slope of the response measured 8 s after the start of the injection. […]
On the technique in general: Surface plasmon resonance follows binding to a sensor surface in real time, without labels.

In another series the test system is rat FXIa. Nature of the series: Species selectivity: rat FXIa potency. It counts as biochemical. As to conditions: rat vs human FXIa.
The nature of series [3]: Chromatographic determination of lipophilicity. Conditions: reversed-phase UPLC, Waters BEH C18 stationary phase, pH 7.4; measured by liquid chromatography, pH7.4. It counts as physicochemical. The text has this:
The chromatographic data was obtained utilizing a Waters Aquity UPLC chromatographic system running a gradient from 5–95% acetonitrile at pH7.4. The stationary phase was a Waters BEH C18 2.1x50 mm. Standardized retention data were obtained by normalization against a set of compounds with precisely determined (octanol/water) logD-values. Lipophilicity values for samples were derived from a corresponding calibration curve.

The target in series [4] is Recombinant human trypsin (Homo sapiens, UniProt P07477). As to the kind of experiment: biochemical. As to conditions: read-out: Trypsin % inhibition at 99 μM. As for the experimental part:
as §1, §2
Trypsin. Recombinant human trypsin was from Polymun, Vienna, Austria.

A word on the inhibition: it is how much of the control response was suppressed. In general, Kd refers to a measure of binding affinity in units of concentration. High values mean a looser complex, low ones a tighter complex. For orientation: chromatographic logD means lipophilicity estimated from chromatographic retention. Read a low chromatographic logD as lower lipophilicity.

On to `O=C(N[C@@H](Cc1ccccc1)C(=O)NCc1cc(=O)[nH]c2ccc(Cl)cc12)c1ccc2[nH]c(=O)cc(O)c2c1` [Compound 13, (S)-N-(1-{(6-Chloro-2-oxo-1,2-dihydroquinolin-4-yl)methylamino}-1-oxo-3-phenylpropan-2-yl)-4-hydroxy-2-oxo-1,2-dihydroquinoline-6-carboxamide], for which the results for the inhibition at 99 µM (in series [1]; at Human plasmin; in series [4]) were 11%, 14% and 12%, respectively. The “selectivity vs. all proteases in the panel, except PKK” value in series [2] is given as “more than five orders of magnitude selectivity”. Besides, the “Rat CLint” value in the series on rat hepatocytes came out at 22 μL/min/ 1·10^6 cells. The molecule also gave a Kd at FXIa CD of 0.5 nM. Besides, in the series with rat FXIa, the “potency against rat FXIa relative to human FXIa (fold less potent)” value was “about 30000 fold”. The molecule further had a chromatographic logD in series [3] of 0.87.

Source of the values: paper PMC4309560, “Creating Novel Activated Factor XI Inhibitors through Fragment Based Lead Generation and Structure Aided Drug Design” (PLoS ONE, 2015).
